In ChEMBL document CHEMBL3991601, “The target landscape of clinical kinase drugs” (Science, 2017) one finds Kd data, which are given here for twelve compounds.

The target in test [1] is T1, Cyclin-G-associated kinase (Homo sapiens, UniProt O14976).
T1 sequence (O14976 whole entry): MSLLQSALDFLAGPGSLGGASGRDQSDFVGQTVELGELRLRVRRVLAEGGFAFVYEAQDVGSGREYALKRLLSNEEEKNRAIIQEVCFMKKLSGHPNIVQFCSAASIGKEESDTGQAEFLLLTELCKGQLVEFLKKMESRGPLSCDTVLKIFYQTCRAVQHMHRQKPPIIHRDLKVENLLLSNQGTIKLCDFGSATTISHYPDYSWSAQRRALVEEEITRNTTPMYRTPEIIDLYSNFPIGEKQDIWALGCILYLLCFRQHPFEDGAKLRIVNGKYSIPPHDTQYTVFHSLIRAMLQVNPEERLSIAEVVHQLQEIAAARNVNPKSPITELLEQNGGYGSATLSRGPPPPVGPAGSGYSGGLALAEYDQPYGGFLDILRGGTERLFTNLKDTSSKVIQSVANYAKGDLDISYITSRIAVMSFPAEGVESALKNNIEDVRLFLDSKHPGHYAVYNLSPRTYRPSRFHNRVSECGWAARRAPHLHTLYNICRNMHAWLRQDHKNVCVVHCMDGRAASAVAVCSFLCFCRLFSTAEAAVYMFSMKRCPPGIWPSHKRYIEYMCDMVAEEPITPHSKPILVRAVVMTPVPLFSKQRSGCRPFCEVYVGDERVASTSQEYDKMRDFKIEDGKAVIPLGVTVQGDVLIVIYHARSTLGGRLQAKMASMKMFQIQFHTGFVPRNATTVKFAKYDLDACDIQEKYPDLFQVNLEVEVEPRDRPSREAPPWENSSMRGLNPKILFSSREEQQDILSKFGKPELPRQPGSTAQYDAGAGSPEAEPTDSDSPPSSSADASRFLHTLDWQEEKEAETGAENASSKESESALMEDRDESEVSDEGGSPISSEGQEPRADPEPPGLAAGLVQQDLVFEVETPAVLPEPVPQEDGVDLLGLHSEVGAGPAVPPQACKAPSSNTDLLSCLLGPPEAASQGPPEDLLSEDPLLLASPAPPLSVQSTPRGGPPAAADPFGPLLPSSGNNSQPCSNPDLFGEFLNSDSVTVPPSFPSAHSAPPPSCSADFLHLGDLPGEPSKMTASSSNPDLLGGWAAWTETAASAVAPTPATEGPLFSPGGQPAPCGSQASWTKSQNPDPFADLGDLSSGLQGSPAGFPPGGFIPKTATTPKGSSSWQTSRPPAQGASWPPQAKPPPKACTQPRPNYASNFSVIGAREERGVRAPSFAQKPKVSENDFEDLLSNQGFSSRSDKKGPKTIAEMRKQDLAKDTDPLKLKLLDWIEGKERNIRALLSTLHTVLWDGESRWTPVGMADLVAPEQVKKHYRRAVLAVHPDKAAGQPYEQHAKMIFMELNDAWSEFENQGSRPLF

The target in test [2] is AP2-associated protein kinase 1 (Homo sapiens, UniProt Q2M2I8).
AP2-associated protein kinase 1, sequence (Q2M2I8 whole entry): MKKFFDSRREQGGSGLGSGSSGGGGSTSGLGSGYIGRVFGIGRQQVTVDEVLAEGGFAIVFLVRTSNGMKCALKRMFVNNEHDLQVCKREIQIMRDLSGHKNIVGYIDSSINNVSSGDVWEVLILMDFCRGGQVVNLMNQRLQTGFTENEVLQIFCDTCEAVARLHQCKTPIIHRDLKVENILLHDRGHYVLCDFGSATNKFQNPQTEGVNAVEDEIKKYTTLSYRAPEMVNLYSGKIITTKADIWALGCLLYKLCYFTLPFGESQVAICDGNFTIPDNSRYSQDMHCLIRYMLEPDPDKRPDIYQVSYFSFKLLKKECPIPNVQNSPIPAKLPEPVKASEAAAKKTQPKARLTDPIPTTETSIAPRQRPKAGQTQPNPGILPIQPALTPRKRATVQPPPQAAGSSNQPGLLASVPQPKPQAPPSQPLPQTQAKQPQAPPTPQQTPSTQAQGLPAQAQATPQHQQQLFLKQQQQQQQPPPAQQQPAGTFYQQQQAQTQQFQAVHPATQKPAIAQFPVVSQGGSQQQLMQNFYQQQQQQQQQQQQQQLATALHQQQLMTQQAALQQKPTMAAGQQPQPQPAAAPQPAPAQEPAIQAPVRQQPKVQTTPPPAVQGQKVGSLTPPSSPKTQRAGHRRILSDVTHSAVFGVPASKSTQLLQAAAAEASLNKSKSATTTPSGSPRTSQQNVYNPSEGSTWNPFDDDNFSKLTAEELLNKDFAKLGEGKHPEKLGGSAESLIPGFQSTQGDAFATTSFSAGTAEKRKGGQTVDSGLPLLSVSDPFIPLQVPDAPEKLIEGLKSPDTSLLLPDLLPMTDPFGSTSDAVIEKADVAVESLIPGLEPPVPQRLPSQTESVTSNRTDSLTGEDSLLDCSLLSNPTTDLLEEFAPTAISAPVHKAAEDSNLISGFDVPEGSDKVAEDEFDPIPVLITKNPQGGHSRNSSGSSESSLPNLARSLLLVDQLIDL
Test [3] concerns the target Mitogen-activated protein kinase kinase kinase kinase 5 (Homo sapiens, UniProt Q9Y4K4).
A further test concerns the target T2, ADP/ATP translocase 2 (Homo sapiens, UniProt P05141).
T2 sequence (P05141 whole entry): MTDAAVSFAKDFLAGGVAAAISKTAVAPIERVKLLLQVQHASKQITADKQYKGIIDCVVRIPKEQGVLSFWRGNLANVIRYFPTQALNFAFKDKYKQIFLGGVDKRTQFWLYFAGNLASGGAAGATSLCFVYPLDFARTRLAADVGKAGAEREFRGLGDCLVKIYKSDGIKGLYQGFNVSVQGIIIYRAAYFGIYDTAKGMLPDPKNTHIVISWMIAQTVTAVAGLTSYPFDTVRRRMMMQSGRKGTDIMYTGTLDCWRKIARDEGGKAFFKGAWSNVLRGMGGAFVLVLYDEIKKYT

Test [4] has as its target Casein kinase I isoform epsilon (Homo sapiens, UniProt P49674).
Test [5] has as its target Serine/threonine-protein kinase MRCK alpha (Homo sapiens, UniProt Q5VT25).
Test [6] deals with T3, Very long-chain specific acyl-CoA dehydrogenase, mitochondrial (Homo sapiens, UniProt P49748).
T3 sequence (P49748 whole entry): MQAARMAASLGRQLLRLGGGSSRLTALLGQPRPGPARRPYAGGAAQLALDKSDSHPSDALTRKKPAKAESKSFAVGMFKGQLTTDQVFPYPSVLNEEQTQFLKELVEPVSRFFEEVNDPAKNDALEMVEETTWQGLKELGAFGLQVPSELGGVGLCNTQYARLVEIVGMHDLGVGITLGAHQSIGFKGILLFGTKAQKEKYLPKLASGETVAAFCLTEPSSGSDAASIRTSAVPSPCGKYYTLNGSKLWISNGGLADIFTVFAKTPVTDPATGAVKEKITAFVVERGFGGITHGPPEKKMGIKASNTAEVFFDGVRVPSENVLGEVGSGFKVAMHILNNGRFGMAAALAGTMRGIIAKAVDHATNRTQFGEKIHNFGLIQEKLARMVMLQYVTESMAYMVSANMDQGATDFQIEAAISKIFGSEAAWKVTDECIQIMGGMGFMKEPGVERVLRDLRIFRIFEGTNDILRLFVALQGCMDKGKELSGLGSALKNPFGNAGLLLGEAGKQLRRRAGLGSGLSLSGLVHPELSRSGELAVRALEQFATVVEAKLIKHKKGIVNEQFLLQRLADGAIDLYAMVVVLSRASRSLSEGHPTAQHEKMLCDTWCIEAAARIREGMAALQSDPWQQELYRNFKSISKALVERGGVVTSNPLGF

The target of test [7] is T4, Tyrosine--tRNA ligase, cytoplasmic (Homo sapiens, UniProt P54577).
T4 sequence (P54577 whole entry): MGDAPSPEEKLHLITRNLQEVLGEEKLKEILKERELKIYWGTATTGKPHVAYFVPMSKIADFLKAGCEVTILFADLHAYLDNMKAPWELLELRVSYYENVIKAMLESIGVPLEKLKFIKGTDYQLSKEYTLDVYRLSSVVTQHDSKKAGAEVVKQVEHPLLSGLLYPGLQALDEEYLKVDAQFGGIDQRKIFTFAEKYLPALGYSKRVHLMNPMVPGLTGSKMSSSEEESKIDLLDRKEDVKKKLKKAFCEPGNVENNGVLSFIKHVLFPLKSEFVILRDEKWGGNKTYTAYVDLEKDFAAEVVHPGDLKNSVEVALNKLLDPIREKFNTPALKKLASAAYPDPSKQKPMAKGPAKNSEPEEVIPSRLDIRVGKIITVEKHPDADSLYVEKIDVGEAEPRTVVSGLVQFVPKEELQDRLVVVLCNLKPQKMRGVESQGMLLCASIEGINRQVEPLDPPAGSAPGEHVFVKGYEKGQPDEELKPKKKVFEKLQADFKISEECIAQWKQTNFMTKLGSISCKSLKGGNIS

Activity calls are given as the source filed them.
Note: in the data inactive means no Kd found up to 30 µM.

Mitogen-activated protein kinase kinase kinase kinase 5, sequence (Q9Y4K4 whole entry): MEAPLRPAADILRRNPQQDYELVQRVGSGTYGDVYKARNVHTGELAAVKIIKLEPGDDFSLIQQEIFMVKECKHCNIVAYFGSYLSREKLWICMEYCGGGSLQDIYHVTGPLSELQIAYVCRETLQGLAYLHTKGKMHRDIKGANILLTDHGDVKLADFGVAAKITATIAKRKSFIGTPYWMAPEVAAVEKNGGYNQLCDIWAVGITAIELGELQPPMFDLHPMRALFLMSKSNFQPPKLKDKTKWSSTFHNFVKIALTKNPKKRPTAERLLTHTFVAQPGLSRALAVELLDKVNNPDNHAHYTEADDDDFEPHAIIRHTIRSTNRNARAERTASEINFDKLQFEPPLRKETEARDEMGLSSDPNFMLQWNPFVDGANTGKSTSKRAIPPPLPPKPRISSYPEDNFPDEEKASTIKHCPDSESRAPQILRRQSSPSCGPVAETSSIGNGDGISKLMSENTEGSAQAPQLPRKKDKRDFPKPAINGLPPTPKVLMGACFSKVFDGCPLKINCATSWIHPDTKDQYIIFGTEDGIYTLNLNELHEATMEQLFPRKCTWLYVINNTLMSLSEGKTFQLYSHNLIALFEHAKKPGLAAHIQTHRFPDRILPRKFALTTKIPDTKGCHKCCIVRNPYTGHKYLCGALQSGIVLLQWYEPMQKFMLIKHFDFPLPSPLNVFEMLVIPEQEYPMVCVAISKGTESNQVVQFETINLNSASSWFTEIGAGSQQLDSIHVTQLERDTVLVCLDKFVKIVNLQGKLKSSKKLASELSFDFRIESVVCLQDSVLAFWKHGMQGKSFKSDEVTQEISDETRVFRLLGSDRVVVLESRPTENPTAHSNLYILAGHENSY
Casein kinase I isoform epsilon, sequence (P49674 whole entry, canonical isoform): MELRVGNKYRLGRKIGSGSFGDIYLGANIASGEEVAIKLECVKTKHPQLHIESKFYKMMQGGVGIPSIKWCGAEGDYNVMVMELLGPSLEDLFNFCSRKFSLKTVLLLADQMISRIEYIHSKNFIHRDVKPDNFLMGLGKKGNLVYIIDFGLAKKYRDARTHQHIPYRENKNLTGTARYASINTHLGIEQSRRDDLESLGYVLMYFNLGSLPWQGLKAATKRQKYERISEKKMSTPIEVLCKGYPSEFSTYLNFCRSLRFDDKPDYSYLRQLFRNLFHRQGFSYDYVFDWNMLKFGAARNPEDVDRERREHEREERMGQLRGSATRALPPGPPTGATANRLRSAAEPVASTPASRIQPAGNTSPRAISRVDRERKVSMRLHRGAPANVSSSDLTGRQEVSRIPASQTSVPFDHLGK
Serine/threonine-protein kinase MRCK alpha, sequence (Q5VT25 whole entry): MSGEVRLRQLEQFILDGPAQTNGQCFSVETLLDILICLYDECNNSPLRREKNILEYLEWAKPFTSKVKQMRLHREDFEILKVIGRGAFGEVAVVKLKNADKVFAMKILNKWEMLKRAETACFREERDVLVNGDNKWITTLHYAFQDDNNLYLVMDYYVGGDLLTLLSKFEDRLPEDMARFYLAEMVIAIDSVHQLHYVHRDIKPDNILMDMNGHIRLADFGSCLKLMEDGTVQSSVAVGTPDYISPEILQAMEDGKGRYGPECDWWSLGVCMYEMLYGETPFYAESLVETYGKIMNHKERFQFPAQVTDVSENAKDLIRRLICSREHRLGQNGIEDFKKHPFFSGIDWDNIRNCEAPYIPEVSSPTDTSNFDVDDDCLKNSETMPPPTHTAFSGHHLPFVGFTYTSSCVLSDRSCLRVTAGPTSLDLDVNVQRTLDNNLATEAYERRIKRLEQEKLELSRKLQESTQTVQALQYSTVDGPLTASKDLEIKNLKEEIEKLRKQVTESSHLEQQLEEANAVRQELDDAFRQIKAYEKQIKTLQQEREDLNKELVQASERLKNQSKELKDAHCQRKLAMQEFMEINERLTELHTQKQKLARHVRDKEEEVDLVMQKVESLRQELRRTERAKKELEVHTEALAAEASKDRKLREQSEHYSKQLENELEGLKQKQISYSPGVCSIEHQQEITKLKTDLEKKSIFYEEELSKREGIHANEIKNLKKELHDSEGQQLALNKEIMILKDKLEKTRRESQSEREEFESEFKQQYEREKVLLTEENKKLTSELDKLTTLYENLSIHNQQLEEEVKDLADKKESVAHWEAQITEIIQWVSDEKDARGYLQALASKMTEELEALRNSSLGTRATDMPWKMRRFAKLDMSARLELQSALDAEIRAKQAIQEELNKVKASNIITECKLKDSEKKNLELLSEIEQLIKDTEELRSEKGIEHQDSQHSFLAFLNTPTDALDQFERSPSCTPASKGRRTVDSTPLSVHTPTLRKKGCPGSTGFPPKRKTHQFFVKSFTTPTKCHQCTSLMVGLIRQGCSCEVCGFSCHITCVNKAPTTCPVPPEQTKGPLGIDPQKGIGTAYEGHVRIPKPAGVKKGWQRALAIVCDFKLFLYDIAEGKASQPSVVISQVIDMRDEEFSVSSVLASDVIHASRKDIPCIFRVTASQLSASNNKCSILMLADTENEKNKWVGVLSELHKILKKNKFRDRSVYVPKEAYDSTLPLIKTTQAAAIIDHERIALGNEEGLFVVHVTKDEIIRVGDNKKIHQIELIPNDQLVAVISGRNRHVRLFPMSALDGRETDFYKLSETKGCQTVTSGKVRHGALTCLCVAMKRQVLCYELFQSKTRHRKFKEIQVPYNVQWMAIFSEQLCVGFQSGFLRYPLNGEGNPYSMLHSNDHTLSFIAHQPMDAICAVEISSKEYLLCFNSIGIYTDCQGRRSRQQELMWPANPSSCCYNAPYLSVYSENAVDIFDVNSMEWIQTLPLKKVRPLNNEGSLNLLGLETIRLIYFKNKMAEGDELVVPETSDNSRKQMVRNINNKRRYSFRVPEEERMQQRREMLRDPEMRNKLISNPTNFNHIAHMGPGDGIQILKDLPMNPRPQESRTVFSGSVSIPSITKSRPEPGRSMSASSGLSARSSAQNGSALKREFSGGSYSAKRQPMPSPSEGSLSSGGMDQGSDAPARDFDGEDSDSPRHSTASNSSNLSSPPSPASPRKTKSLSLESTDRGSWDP

Regarding `O=C1NC(=O)/C(=C/c2ccc3nccc(-c4ccncc4)c3c2)S1` [GSK-1059615], the Kd in test [1] is 7.44 µM (active); in test [2] it was 0.035 µM (active); in test [3], > 30 µM (inactive); at ADP/ATP translocase 2, > 30 µM (inactive); in test [4], > 30 µM (inactive); in test [5], > 30 µM (inactive). For the same compound, the Kd in test [6] and in test [7] was > 30 µM (inactive) throughout.
Regarding `COc1cc(CCc2cc(NC(=O)c3ccc(N4C[C@@H](C)N[C@@H](C)C4)cc3)n[nH]2)cc(OC)c1` [AZD-4547], the Kd was > 30 µM (inactive) in test [1]; > 30 µM (inactive) in test [2]; 0.006 µM (active) in test [3]; > 30 µM (inactive) on ADP/ATP translocase 2; > 30 µM (inactive) in test [4]; > 30 µM (inactive) in test [5]. In addition, the Kd in test [6] and in test [7] was > 30 µM (inactive) each time.
For `C[C@@H]1CN(Cc2ccc(F)cc2)[C@@H](C)CN1C(=O)c1cc2c(C(=O)C(=O)N(C)C)cn(C)c2cc1Cl` [TALMAPIMOD], the Kd (in test [1]; in test [2]; in test [3]; on ADP/ATP translocase 2; in test [4]; in test [5]) was > 30 µM (inactive) each time. Further, the Kd in test [6] and in test [7] was > 30 µM (inactive) each time.
Take `COc1ccc(-c2ccc3c(N4CCOC[C@@H]4C)nc(N4CCOC[C@@H]4C)nc3n2)cc1CO` [AZD-8055]: the Kd (in test [1]; in test [2]; in test [3]; at ADP/ATP translocase 2; in test [4]; in test [5]) was > 30 µM (inactive) throughout. The Kd in test [6] and in test [7] was > 30 µM (inactive) in each case.
`CN1CC[C@@H](c2c(O)cc(O)c3c(=O)cc(-c4ccccc4Cl)oc23)[C@@H]1CO`: the Kd (in test [1]; in test [2]; in test [3]; on ADP/ATP translocase 2; in test [4]; in test [5]) was > 30 µM (inactive) each time. Further, the Kd in test [6] and in test [7] was > 30 µM (inactive) throughout.
Regarding `C=CC(=O)N1CCC(Oc2cc3c(Nc4ccc(Cl)c(Cl)c4F)ncnc3cc2OC)CC1` [POZIOTINIB], the Kd (in test [1]; in test [2]; in test [3]; on ADP/ATP translocase 2; in test [4]; in test [5]) was > 30 µM (inactive) each time. Besides, the Kd in test [6] and in test [7] was > 30 µM (inactive) each time.
For `Cn1cc(-c2ccc3nnc(C(F)(F)c4ccc5ncccc5c4)n3n2)cn1` [JNJ-38877605], the Kd (in test [1]; in test [2]; in test [3]; on ADP/ATP translocase 2; in test [4]; in test [5]) was > 30 µM (inactive) each time. The Kd in test [6] and in test [7] was > 30 µM (inactive) in each case.
As to `Cc1ccc(-n2nc(C(C)(C)C)cc2NC(=O)NCc2cc(F)ccc2Oc2ccc3c(cnn3CCO)c2)cc1` [PEXMETINIB], the Kd (in test [1]; in test [2]; in test [3]; at ADP/ATP translocase 2; in test [4]; in test [5]) was > 30 µM (inactive) throughout. Further, the Kd in test [6] and in test [7] was > 30 µM (inactive) throughout.
For `Cc1c(F)cc(C(=O)NC2CC2)cc1-c1ccc(C(=O)NCC(C)(C)C)cn1` [LOSMAPIMOD], the Kd (in test [1]; in test [2]; in test [3]; on ADP/ATP translocase 2; in test [4]; in test [5]) was > 30 µM (inactive) throughout. Also, the Kd in test [6] and in test [7] was > 30 µM (inactive) in each case.
For `COc1cc(N2CCC(N3CCN(C)CC3)CC2)ccc1Nc1ncnc(Nc2ccccc2S(=O)(=O)C(C)C)n1` [ASP-3026], the Kd in test [1] was 2.82 µM (active); in test [2], 1.32 µM (active); in test [3], > 30 µM (inactive); at ADP/ATP translocase 2, > 30 µM (inactive); in test [4], > 30 µM (inactive); in test [5] it was > 30 µM (inactive). Besides, the Kd in test [6] and in test [7] was > 30 µM (inactive) each time.
As to `CNC(=O)c1ccc(-c2cnc3ncc(Cc4ccc5ncccc5c4)n3n2)cc1F` [CAPMATINIB], the Kd (in test [1]; in test [2]; in test [3]; at ADP/ATP translocase 2; in test [4]; in test [5]) was > 30 µM (inactive) in each case. Further, the Kd in test [6] and in test [7] was > 30 µM (inactive) in each case.
With `CNC(=O)c1ccc(C)c(-n2c(C)cc(OCc3ccc(F)cc3F)c(Br)c2=O)c1` [PH-797804], the Kd (in test [1]; in test [2]; in test [3]; at ADP/ATP translocase 2; in test [4]; in test [5]) was > 30 µM (inactive) each time. Moreover, the Kd in test [6] and in test [7] was > 30 µM (inactive) in each case.
